Results taken from paper PMC13503962, “Uncovering the genetic basis of fruit volatiles in Fragaria vesca through GWAS reveals FvJMT2 as a methyl benzoate biosynthesis gene with bioactivity against Drosophila suzukii” (Horticulture Research, 2026).

System: T1, FvJMT2 (FvJMT2^C275, functional full-length allele)
T1 construct: full-length CDS (1173 nt, 390 residues) in pQE80L, N-terminal 6xHis tag, E. coli XL1-Blue, Ni-NTA purified; tag removal not mentioned
Test: radiochemical methyl transfer from […]-SAM, hexane extraction, scintillation counting; nonlinear Michaelis-Menten fit
Format: biochemical, Fragaria vesca
Conditions: co-substrate SAM (saturating); 50 mM Tris-HCl pH 7.5, 2.5 mM MgCl2, 5 mM DTT, 2.5 mM EDTA, 30 °C; read-out: Kinetic parameters / Km /

Row | Km [µM] | SMILES
1 | 174 | CC/C=C\C[C@H]1C(=O)CC[C@@H]1CC(=O)O [Jasmonic acid]
2 | 690 | O=C(O)c1ccccc1O [Salicylic acid]
3 | 597 | O=C(O)/C=C/c1ccccc1 [Cinnamic acid]
4 | 577 | O=C(O)c1ccccc1 [Benzoic acid]
